Experimental data reported in ChEMBL document CHEMBL1139472, “Synthesis of N-{4-[(2,4-diamino-5-methyl-4,7-dihydro-3H-pyrrolo[2,3-d]pyrimidin-6-yl)thio]benzoyl}-L-glutamic acid and N-{4-[(2-amino-4-oxo-5-methyl-4,7-dihydro-3H-pyrrolo[2,3-d]pyrimidin-6-yl)thio]benzoyl}-L-glutamic acid as dual inhibitors of dihydrofolate reductase and thymidylate synthase and …” (J Med Chem, 2005).
pEC50, pIC50: −log10 of the molar value.

Columns and labels:
[1] = test system: CCRF-CEM; assay: cells; settings: Homo sapiens
Description: Growth inhibition of human CCRF-CEM cells

[2] = target: Thymidylate synthase (Escherichia coli, UniProt C3SWJ7); assay: Inhibition of Escherichia coli thymidylate synthase
[3] = test system: CCRF-CEM; assay: cells; settings: Homo sapiens, 120 h
[4] = target: Thymidylate synthase (Homo sapiens, UniProt P04818)
Description: Inhibition of human thymidylate synthase

[5] = target: T1, Bifunctional dihydrofolate reductase-thymidylate synthase (Toxoplasma gondii, UniProt Q07422); assay: Inhibition of Toxoplasma gondii thymidylate synthase
T1 sequence (Q07422 whole entry): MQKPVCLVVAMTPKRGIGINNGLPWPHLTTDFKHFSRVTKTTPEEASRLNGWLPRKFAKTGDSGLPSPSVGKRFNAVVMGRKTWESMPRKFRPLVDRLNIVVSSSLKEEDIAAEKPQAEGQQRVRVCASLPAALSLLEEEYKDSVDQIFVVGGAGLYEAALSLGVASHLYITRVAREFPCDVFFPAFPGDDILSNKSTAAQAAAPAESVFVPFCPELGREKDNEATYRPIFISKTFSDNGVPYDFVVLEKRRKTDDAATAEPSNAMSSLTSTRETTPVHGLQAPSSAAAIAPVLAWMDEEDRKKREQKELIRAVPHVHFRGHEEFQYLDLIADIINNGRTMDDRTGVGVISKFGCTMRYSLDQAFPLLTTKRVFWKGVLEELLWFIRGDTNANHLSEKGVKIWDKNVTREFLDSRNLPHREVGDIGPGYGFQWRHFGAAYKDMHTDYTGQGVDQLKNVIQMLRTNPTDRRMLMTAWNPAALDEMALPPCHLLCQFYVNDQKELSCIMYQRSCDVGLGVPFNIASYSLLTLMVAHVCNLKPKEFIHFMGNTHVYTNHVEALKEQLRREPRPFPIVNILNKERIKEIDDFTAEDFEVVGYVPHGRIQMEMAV

[6] = target: Dihydrofolate reductase (Homo sapiens, UniProt P00374)
[7] = test system: CCRF-CEM; assay: cells; settings: Homo sapiens, 120 h; remark: listed apart in the source
[8] = target: T2, Dihydrofolate reductase (Escherichia coli, UniProt P0ABQ4)
T2 sequence (P0ABQ4 whole entry): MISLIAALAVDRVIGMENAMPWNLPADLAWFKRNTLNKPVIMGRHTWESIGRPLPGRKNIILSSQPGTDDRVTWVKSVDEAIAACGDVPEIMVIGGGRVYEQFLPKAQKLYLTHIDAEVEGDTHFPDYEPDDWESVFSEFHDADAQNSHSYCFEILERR
Description: Inhibition of Escherichia coli DHFR

[9] = target: T1, Bifunctional dihydrofolate reductase-thymidylate synthase; assay: Inhibition of Toxoplasma gondii DHFR
[10] = test system: CCRF-CEM; assay: cells; settings: Homo sapiens, 120 h; remark: listed apart in the source
[11] = test system: CCRF-CEM; assay: Protection against 4000 nM N-{4-[(2,4-diamino-5-methyl-4, 7-dihydro-3H-pyrrolo[2,3-d]pyr imidin-6-yl)thio]benzoyl}-L-gl utamic acid-induced growth inhibition in human CCRF-CEM cells assessed as growth at 5 uM relative to control; assay type: functional; parameters: scale not given: the % may be the effect or the level left
[12] = test system: CCRF-CEM; assay: Protection against 40 nM methotrexate-induced growth inhibition in human CCRF-CEM cells assessed as growth at 5 uM relative to control; assay type: functional; parameters: scale not given: the % may be the effect or the level left
[13] = test system: CCRF-CEM; assay: Protection of drug-induced growth inhibition by 0.1 uM leucovorin in human CCRF-CEM cells assessed as growth at 20 nM relative to control; assay type: functional; parameters: scale not given: the % may be the effect or the level left
[14] = test system: CCRF-CEM; assay: Cell growth in human CCRF-CEM cells at 20 nM relative to control; assay type: functional
[15] = test system: CCRF-CEM; assay: Cell growth in human CCRF-CEM cells at 40 nM relative to control; assay type: functional
[16] = test system: CCRF-CEM; assay: Protection of drug-induced growth inhibition by 1 uM leucovorin in human CCRF-CEM cells assessed as growth at 20 nM relative to control; assay type: functional; parameters: scale not given: the % may be the effect or the level left
[17] = test system: CCRF-CEM; assay: Protection of drug-induced growth inhibition by 10 uM leucovorin in human CCRF-CEM cells assessed as growth at 20 nM relative to control; assay type: functional; parameters: scale not given: the % may be the effect or the level left

Sequence of Thymidylate synthase (Escherichia coli, UniProt C3SWJ7) (C3SWJ7 whole entry): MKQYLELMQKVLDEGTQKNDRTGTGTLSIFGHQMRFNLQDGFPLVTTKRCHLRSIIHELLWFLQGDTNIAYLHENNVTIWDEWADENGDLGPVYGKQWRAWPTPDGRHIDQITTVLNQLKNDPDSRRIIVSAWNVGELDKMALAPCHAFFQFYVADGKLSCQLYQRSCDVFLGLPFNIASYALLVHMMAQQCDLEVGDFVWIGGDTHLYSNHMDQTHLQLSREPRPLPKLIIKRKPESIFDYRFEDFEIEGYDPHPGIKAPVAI
Sequence of Thymidylate synthase (Homo sapiens, UniProt P04818) (P04818 whole entry): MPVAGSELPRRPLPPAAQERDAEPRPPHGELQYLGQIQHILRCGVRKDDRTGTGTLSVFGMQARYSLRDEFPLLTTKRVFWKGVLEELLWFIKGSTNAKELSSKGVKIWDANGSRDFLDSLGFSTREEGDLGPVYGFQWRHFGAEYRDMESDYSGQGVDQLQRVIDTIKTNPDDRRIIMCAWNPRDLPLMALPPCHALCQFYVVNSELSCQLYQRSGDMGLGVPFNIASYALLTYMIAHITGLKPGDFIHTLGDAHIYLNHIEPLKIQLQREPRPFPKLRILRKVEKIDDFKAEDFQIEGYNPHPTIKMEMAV
Sequence of Dihydrofolate reductase (Homo sapiens, UniProt P00374) (P00374 whole entry): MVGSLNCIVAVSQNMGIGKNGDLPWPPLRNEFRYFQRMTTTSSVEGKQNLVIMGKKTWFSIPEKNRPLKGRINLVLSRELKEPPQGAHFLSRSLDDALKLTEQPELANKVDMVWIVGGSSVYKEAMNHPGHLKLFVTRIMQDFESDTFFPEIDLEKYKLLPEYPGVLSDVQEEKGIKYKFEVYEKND

## Cc1c(Sc2ccc(C(=O)N[C@@H](CCC(=O)O)C(=O)O)cc2)[nH]c2nc(N)[nH]c(=O)c12
[1]
  pEC50: < 4.70
[2]
  pIC50: < 3.74
[3]
  pEC50: < 4.70
[4]
  pIC50: 4.00
[5]
  pIC50: 5.44
[6]
  pIC50: < 3.62
[7]
  pEC50: < 4.70
[8]
  pIC50: < 3.62
[9]
  pIC50: 5.66
[10]
  pEC50: < 4.70

## Cc1cn([C@H]2C[C@H](O)[C@@H](CO)O2)c(=O)[nH]c1=O [DOXRIBTIMINE]
[11]
  Activity: 20%
[12]
  Activity: 18%

## CN(Cc1cnc2nc(N)nc(N)c2n1)c1ccc(C(=O)N[C@@H](CCC(=O)O)C(=O)O)cc1 [METHOTREXATE]
[13]
  Activity: 90%
[14]
  Activity: 5%
[15]
  Activity: 12%
[16]
  Activity: 96%
[17]
  Activity: 95%

## Cc1nc2ccc(CN(C)c3ccc(C(=O)N[C@@H](CCC(=O)O)C(=O)O)s3)cc2c(=O)[nH]1 [RALTITREXED]
[8]
  pIC50: 4.64
